According to ChEMBL document CHEMBL1201862, “PubChem BioAssay data set” (2004):
The source made the active and inactive calls.

Assays:
[1] = target: Luciferin 4-monooxygenase (Photinus pyralis, UniProt P08659); experiment: firefly luciferase enzyme inhibitors, dose response, biochemical, luminescence (AID 1891)
[2] = Luminescence Cell-Based Dose Confirmation HTS to Identify Inhibitors of Platelet Dense Granule Release. [Related pubchem assays: 1663 (Primary HTS), 1678 (Summary of Project)]; type: functional
[3] = target: Potassium voltage-gated channel subfamily KQT member 2 (Rattus norvegicus, UniProt O88943, W236L); experiment: KCNQ2 channel potentiators, dose response, mechanism study for KCNQ2 potentiator project, cell-based, automated electrophysiology (AID 2603); type: functional
Vero = experiment: host cell cytotoxicity of antiviral hits, dose response, cytotoxicity control for West Nile virus antiviral project, secondary assay (AID 1650); type: functional; details: Chlorocebus sabaeus
[4] = Luminescence Cell-Based Dose Retest to Confirm Inhibitors of Cancer Stem Cells. [Related pubchem assays (depositor defined):AID2717, AID2721]; type: functional; details: Homo sapiens
[5] = target: Epstein-Barr nuclear antigen 1 (Epstein-Barr virus (strain B95-8) (HHV-4) (Human herpesvirus 4), UniProt P03211); experiment: EBNA-1 inhibitors, dose response, biochemical, fluorescence polarization, 1536-well (AID 2381); design: species or system human gammaherpesvirus 4;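 note: fluorescence polarization of a Cy5 DNA probe bound by EBNA-1 protein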
[6] = target: Lytic switch protein BZLF1 (Epstein-Barr virus (strain B95-8) (HHV-4) (Human herpesvirus 4), UniProt P03206); experiment: EBV ZTA inhibitors, dose response, counter-screen for EBNA-1 inhibitor project, biochemical, fluorescence polarization, Epstein-Barr virus, 1536-well (AID 2377); design: species or system human gammaherpesvirus 4;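 note: fluorescence polarization of Cy5-labelled ZRE DNA probe bound by purified Zta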
[7] = target: Glyceraldehyde-3-phosphate dehydrogenase (Homo sapiens, UniProt P04406)
Bcl-2-related protein A1 [8] = target: T1, Bcl-2-related protein A1 (Mus musculus, UniProt Q07440); experiment: Bfl-1 inhibitors blocking BH3 peptide binding, confirmation, biochemical, TR-FRET, mouse Bfl-1 (AID 621);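 note: TR-FRET binding of GST-Bfl-1 to FITC-labelled Bid peptide via terbium antibody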
T1 sequence (Q07440 whole entry): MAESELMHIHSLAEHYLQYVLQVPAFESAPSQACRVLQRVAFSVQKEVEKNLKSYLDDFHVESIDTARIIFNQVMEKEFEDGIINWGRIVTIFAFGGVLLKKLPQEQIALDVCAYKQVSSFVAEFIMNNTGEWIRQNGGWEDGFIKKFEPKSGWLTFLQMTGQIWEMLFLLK

Bcl-2-related protein A1 [9] = target: T1, Bcl-2-related protein A1; experiment: Bfl-1 binding inhibitors, SAR follow-up, biochemical, fluorescence polarization (AID 1070)
[10] = NIH-3T3 fibroblast cytotoxicity, dose response, cytotoxicity control, cell-based, fluorescence, Alamar Blue, secondary assay (AID 2327); type: functional;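 note: NIH-3T3 mouse fibroblasts cultured with fluconazole at 8 µg/mL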
[11] = C. albicans growth with fluconazole, confirmation, fluorescence, retest (AID 2467); type: functional, cell-based
[12] = cytotoxicity in HPDE-C7 cells, cell-based, fluorescence, HTS (AID 430); type: functional; details: Homo sapiens
[13] = Luminescence-based dose response cell-based high throughput screening assay for cytotoxic compounds using the IEC-6 intestinal epithelial cell line. [Related pubchem assays: 1858 (Summary AID.), 1825 (Counterscreen.), 1907 (Confirmation screen.)]; type: functional
[14] = cytotoxicity in KRAS-transformed pancreatic duct cells, primary screen, cell-based, fluorescence, HTS (AID 431); type: functional; details: Homo sapiens;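 note: cell line used: HPDE-C7K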
[15] = cytotoxicity in HEK-293T cells, dose response, cytotoxicity control for BCR NF-kB inhibitor project, luminescence, B-cell screen hits (AID 489021); type: functional, cell-based;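 note: HEK-293T cells carrying an NF-kB luciferase reporter; cells exposed to compound for about 14 hours before viability readout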
INS1 = experiment: beta cell apoptosis inhibitors, cytokine rescue, dose response, luminescence, retest (AID 449756); type: functional, cell-based; details: Rattus norvegicus;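 note: cell death triggered by IL-1 beta plus TNF-alpha plus IFN-gamma mixture; protective hits raise ATP signal compared with cytokine alone wells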
[16] = target: Serine/threonine-protein phosphatase PP1-alpha catalytic subunit (Homo sapiens, UniProt P62136); experiment: PP1 phosphatase inhibitors, dose response, biochemical, fluorescence (AID 2394)
[17] = inhibitors of intracellular T. cruzi replication, confirmation, NIH3T3 host cells, beta-gal luminescence (AID 2044); type: functional, cell-based;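 note: intracellular parasites grown in NIH/3T3 mouse fibroblasts as host cells; luminescent beta-galactosidase reporter signal from transgenic T. cruzi replicating inside host cells; inhibitors lower the luminescence signal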
[18] = target: Serine/threonine-protein phosphatase (Homo sapiens, UniProt Q9BPW0); experiment: PP5 phosphatase inhibitors, dose response, biochemical, fluorescence (AID 2395)
[19] = cytotoxicity toward NIH3T3 fibroblasts, dose response, counter-screen, cell-based, ATP luminescence, mouse fibroblasts (AID 2010); type: functional;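 note: cells exposed to compound for about 90 hours before reading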
[20] = target: T2, Apoptotic protease-activating factor 1 (Homo sapiens, UniProt O14727); type: functional
T2 sequence (O14727 whole entry): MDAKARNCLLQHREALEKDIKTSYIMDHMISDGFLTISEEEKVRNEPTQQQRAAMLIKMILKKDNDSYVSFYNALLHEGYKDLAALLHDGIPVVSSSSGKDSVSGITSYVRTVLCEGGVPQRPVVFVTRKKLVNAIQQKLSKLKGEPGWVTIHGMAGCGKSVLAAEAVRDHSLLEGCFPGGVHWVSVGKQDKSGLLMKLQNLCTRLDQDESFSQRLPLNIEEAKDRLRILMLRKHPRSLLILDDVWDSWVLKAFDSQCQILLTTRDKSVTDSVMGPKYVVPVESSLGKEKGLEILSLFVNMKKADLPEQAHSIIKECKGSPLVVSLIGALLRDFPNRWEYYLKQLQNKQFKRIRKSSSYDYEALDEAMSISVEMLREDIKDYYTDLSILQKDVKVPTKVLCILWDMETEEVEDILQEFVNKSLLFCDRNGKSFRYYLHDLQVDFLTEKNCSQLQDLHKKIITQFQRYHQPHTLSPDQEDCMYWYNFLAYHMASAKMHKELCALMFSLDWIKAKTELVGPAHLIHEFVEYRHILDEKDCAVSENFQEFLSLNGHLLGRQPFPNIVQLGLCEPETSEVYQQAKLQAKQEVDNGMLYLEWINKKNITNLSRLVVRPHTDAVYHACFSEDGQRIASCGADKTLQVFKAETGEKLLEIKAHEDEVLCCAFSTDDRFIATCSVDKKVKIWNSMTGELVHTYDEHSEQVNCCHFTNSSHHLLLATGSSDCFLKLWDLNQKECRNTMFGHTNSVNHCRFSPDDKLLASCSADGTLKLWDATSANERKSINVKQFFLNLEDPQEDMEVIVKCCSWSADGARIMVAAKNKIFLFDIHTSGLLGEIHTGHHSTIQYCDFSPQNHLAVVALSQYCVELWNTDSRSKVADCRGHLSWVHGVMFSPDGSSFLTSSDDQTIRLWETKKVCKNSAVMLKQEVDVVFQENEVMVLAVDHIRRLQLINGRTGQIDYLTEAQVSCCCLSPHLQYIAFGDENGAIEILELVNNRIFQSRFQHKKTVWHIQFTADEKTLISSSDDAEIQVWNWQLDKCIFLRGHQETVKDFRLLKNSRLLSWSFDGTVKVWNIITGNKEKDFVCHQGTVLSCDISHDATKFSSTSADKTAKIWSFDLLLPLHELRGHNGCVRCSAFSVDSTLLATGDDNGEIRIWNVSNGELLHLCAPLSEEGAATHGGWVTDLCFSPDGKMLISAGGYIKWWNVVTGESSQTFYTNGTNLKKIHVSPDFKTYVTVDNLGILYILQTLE

[21] = target: Histone-lysine N-methyltransferase NSD2 (Homo sapiens, UniProt O96028); type: biochemical
[22] = target: RNA-editing ligase 1, mitochondrial (Trypanosoma brucei brucei, UniProt P86926); experiment: TbREL1 ligase inhibitors, dose response, biochemical, fluorescence, Trypanosoma brucei (AID 1117295); type: functional
Sequence of RNA-editing ligase 1, mitochondrial (P86926 whole entry): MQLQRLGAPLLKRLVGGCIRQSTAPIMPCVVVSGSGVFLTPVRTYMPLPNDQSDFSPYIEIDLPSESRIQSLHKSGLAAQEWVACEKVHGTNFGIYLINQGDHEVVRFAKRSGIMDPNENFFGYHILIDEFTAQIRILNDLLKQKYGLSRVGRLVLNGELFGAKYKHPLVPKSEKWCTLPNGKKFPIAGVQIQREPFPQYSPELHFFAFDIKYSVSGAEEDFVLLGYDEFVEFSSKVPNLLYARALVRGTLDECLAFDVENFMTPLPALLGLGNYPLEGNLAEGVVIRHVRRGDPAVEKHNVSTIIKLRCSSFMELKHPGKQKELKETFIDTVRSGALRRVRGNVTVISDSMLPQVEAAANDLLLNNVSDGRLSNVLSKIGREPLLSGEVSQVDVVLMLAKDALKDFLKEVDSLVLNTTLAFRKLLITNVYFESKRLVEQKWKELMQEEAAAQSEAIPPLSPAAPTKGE

Sequence of Glyceraldehyde-3-phosphate dehydrogenase (P04406 whole entry): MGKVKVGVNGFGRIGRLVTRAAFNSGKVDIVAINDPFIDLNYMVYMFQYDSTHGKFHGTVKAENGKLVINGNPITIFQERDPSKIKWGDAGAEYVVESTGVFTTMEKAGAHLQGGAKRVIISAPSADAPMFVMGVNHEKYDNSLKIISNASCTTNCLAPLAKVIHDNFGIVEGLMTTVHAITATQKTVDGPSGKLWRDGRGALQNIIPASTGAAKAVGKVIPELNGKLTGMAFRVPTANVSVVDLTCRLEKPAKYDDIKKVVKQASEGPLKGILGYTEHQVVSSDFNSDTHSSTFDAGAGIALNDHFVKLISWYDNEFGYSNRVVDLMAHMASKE
Sequence of Lytic switch protein BZLF1 (P03206 whole entry): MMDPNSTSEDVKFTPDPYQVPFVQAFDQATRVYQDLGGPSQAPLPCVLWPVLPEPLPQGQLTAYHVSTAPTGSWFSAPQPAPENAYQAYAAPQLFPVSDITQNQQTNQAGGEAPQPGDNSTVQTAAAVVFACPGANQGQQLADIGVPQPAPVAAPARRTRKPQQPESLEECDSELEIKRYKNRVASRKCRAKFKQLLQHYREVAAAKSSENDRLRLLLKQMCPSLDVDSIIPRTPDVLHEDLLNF
Sequence of Potassium voltage-gated channel subfamily KQT member 2 (O88943 whole entry W236L): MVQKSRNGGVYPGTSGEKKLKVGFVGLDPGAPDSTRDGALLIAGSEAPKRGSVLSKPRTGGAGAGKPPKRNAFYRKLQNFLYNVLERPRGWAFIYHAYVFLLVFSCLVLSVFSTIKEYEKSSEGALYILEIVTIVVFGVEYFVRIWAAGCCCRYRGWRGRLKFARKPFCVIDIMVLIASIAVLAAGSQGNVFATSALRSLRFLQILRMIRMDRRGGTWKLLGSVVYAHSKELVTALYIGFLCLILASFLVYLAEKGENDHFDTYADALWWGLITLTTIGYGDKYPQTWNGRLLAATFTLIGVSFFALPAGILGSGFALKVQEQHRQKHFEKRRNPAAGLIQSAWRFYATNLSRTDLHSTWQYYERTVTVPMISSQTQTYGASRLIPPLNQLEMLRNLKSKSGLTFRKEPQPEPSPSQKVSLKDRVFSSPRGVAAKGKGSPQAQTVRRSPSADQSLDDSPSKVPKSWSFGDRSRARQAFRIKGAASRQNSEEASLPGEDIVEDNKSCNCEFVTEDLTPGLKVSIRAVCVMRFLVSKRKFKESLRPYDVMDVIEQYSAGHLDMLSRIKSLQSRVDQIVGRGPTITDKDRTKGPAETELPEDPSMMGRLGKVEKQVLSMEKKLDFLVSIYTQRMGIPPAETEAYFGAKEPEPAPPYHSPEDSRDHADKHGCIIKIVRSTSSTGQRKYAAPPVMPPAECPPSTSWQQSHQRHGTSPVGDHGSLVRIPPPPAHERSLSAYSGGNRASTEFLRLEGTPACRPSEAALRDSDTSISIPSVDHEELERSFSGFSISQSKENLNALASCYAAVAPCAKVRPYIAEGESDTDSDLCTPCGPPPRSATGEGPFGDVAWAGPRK
Sequence of Histone-lysine N-methyltransferase NSD2 (O96028 whole entry): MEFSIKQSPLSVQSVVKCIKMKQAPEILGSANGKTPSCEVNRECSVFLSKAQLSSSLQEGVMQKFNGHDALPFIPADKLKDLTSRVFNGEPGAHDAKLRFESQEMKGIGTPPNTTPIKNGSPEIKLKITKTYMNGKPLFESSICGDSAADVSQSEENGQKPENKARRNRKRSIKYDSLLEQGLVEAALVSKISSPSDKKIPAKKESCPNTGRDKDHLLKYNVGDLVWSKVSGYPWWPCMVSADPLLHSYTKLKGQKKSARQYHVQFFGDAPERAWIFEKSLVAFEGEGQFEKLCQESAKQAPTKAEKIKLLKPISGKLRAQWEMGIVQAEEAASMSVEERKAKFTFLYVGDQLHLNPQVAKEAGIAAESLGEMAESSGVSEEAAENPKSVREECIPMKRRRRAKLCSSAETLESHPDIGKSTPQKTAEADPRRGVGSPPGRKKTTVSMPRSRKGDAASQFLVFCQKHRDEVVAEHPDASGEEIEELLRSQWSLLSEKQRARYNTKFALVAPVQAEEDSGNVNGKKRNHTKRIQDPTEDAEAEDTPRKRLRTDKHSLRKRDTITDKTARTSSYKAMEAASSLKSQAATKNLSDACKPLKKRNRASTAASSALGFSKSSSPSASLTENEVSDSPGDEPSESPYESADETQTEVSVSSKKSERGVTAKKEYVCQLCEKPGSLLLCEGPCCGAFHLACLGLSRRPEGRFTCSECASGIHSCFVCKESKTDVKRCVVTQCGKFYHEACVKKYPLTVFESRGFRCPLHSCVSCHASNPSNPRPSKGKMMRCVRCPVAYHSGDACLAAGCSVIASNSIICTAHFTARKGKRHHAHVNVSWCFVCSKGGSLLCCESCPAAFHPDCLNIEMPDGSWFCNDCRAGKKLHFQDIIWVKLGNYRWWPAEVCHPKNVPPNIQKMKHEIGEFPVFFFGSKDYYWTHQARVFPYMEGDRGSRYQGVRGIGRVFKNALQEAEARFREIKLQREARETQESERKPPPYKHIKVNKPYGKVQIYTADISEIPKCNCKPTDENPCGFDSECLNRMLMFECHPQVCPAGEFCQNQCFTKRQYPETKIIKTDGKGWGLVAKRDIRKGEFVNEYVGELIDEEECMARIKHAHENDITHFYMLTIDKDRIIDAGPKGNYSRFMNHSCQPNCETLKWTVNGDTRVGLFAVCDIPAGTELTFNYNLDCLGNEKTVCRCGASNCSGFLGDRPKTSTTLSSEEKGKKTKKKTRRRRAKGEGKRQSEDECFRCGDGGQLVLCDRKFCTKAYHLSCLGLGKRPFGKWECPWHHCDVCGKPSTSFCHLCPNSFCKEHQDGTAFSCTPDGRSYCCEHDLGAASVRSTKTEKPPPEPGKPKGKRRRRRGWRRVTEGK
Sequence of Epstein-Barr nuclear antigen 1 (P03211 whole entry): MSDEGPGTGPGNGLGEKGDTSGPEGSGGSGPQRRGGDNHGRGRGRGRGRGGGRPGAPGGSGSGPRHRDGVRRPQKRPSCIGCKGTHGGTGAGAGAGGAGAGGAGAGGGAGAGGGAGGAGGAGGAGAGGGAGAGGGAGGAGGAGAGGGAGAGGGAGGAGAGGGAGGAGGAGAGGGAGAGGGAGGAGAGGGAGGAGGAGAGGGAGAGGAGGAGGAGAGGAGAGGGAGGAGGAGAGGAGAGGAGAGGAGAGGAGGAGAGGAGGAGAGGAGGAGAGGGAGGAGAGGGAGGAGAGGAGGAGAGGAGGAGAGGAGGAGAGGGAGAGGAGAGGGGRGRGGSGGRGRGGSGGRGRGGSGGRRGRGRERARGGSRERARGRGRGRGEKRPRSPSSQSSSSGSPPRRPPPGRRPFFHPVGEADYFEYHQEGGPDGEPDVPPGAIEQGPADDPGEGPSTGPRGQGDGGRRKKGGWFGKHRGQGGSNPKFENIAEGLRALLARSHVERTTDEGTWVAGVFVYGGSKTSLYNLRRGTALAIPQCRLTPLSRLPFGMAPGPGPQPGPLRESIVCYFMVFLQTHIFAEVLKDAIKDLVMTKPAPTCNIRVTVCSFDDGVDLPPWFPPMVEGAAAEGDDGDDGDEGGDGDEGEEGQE
Sequence of Serine/threonine-protein phosphatase (Q9BPW0 whole entry): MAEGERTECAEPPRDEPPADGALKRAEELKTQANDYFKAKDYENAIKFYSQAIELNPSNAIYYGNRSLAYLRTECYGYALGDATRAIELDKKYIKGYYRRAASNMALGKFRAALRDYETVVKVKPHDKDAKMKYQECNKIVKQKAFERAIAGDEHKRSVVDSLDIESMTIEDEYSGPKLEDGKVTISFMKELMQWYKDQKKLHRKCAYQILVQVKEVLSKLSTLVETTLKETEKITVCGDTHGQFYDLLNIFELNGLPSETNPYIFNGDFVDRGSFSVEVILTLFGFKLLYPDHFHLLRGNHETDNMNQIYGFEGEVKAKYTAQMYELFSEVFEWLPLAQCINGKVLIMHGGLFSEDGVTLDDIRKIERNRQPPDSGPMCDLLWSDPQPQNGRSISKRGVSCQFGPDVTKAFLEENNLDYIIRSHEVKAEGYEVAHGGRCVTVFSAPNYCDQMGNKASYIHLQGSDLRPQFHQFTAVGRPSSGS
Sequence of Luciferin 4-monooxygenase (P08659 whole entry): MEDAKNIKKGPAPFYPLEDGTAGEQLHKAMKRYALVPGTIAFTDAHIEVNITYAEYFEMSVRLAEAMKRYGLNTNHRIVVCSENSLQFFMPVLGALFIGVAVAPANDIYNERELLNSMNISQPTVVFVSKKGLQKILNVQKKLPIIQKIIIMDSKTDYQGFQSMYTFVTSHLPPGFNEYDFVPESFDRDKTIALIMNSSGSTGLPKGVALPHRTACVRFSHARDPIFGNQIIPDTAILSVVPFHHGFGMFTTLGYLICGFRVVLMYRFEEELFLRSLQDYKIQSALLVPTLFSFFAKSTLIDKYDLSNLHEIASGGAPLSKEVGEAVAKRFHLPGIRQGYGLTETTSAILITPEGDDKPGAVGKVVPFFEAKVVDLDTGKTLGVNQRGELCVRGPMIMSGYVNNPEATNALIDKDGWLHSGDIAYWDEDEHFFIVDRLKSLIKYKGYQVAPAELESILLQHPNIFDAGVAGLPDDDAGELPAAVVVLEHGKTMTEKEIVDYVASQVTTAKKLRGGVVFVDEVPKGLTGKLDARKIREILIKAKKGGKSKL

Cc1cc(Cl)c(S(=O)(=O)N2CCN(c3ccccn3)CC2)cc1OCC(=O)NC1CCCCC1
EC50 [1]: 77.1 µM (active) | EC50 [2]: > 112 µM (not active) | EC50 [3]: 5.34 µM (active)

Cc1cc(C)c(C(=O)/C=C/c2ccc(C(C)C)cc2)c(O)n1
CC50 (Vero): 35.8 µM (active) | AC50 [4]: 9.65 µM (active)

CCOc1ccc(NC(=O)CCC(=O)NNC(=O)COc2ccc(C)cc2Br)cc1
IC50 [5]: 5.52 µM (active) | IC50 [6]: > 111 µM (not active)

COCCNC1=C(Cl)C(=O)N(c2ccc(Cl)c(Cl)c2)C1=O
IC50 [7]: > 100 µM (not active) | IC50 (Bcl-2-related protein A1 [8]): 4.96 µM (active) | IC50 (Bcl-2-related protein A1 [9]): 12.6 µM (active)

C[C@H]1CCC/C=C/C2C[C@H](O)CC2[C@H](O)/C=C/C(=O)O1 (some centres undefined)
EC50 [10]: 2.37 µM (inconclusive) | EC50 [11]: 0.843 µM (active) | EC50 [12]: 0.23 µM (active) | IC50 [13]: 0.446 µM (active) | EC50 [14]: 0.24 µM (active) | IC50 [15]: > 80 µM (inactive) | AC50 (INS1): 1.01 µM (active)

Oc1ccccc1/C=N/Nc1cc(N2CCCC2)nc(N2CCCC2)n1
IC50 [16]: 34.4 µM (not active) | EC50 [17]: 1.85 µM (active) | IC50 [18]: 4.26 µM (active) | EC50 [19]: > 60 µM (inconclusive) | IC50 [20]: 1.03 µM (active) | AC50 [21]: 1.97 µM (active) | IC50 [22]: > 96.6 µM (inactive)
